Data from article PMC10881971, “Hepa-ToxMOA: a pathway-screening method for evaluating cellular stress and hepatic metabolic-dependent toxicity of natural products” (Scientific Reports, 2024).
Counter-ions that a name gives are not always drawn. Like-named read-outs stand apart in the source and are kept apart here.

Tested on: AP1, P53, Nrf2, and NF-κB

| SMILES | sum of activity scores compared between metabolic activation and non-metabolic conditions | Toxic (natural products exceeding Score 3, Venn diagram list Fig. 3c) (human) | Toxic (natural products exceeding Score 3, Venn diagram list Fig. 3c) | active (increased GFP intensity) for all Hepa-ToxMOA cell lines (Fig. 3d) |
| --- | --- | --- | --- | --- |
| C[C@@H]1O[C@@H](O[C@H]2[C@H](OC(=O)[C@]34CCC(C)(C)C[C@H]3C3=CC[C@@H]5[C@@]6(C)C[C@H](O)[C@H](O[C@@H]7O[C@H](CO)[C@@H](O)[C@H](O)[C@H]7O)C(CO)(CO)[C@@H]6CC[C@@]5(C)[C@]3(C)C[C@H]4O)OC[C@H](O)[C@@H]2O)[C@H](O)[C@H](O)[C@H]1O[C@@H]1OC[C@@H](O)[C@H](O[C@@H]2OC[C@](O)(CO)[C@H]2O)[C@H]1O [Platycodin D] | more active under metabolic activation | S9+ only |  |  |
| CC[C@]1(O)C[C@@H]2CN(CCc3c([nH]c4ccccc34)[C@@](C(=O)OC)(c3cc4c(cc3OC)N(C)[C@H]3[C@@](O)(C(=O)OC)[C@H](OC(C)=O)[C@]5(CC)C=CCN6CC[C@]43[C@@H]65)C2)C1 [Vinblastine sulfate, reference compound] | more active under metabolic activation | S9+ only |  |  |
| CC1=C(O)C(=O)C=C2C1=CC=C1[C@@]2(C)CC[C@@]2(C)[C@@H]3C[C@](C)(C(=O)O)CC[C@]3(C)CC[C@]12C [Celastrol] | more active under metabolic activation | S9+ only |  |  |
| C[C@@H]1CC[C@@]2(OC1)O[C@H]1C[C@H]3[C@@H]4CC=C5C[C@@H](O)C[C@@H](O[C@@H]6O[C@H](C)[C@H](O)[C@H](O)[C@H]6O[C@@H]6O[C@@H](C)[C@H](O)[C@@H](O)[C@H]6O)[C@]5(C)[C@H]4CC[C@]3(C)[C@H]1[C@@H]2C [Ophiopogonin B] | did not show a response |  |  |  |
| C[C@@]1(C(=O)O)CC[C@]2(C)CC[C@]3(C)C4=CC(=O)c5c(cc(O)c(O)c5C=O)[C@]4(C)CC[C@@]3(C)[C@@H]2C1 [Demethylzeylasteral] | did not show a response |  |  |  |
| C[C@@H]1O[C@@H](O[C@H]2[C@H](OC(=O)[C@]34CCC(C)(C)C[C@H]3C3=CC[C@@H]5[C@@]6(C)C[C@H](O)[C@H](O[C@@H]7O[C@H](CO)[C@@H](O)[C@H](O[C@@H]8O[C@H](CO)[C@@H](O)[C@H](O)[C@H]8O)[C@H]7O)C(CO)(CO)[C@@H]6CC[C@@]5(C)[C@]3(C)C[C@H]4O)OC[C@H](O)[C@@H]2O)[C@H](O)[C@H](O)[C@H]1O[C@@H]1OC[C@@H](O)[C@H](O[C@@H]2OC[C@](O)(CO)[C@H]2O)[C@H]1O [Platycodin D2] | more active without metabolic activation | S9- only |  |  |
| COc1c(O)cc2oc3cc(O)c(CC=C(C)C)c(O)c3c(=O)c2c1CC=C(C)C [alpha-Mangostin] | more active under metabolic activation |  | S9+ only |  |
| O=C(C[C@@H]1NCCC[C@H]1O)Cn1cnc2ccccc2c1=O [beta-dichroine, beta-febrifugine (beta-dichroine)] | did not show a response |  |  |  |
| CC[C@]1(O)C[C@H]2CN(CCc3c([nH]c4ccccc34)[C@@](C(=O)OC)(c3cc4c(cc3OC)N(C=O)[C@H]3[C@@](O)(C(=O)OC)[C@H](OC(C)=O)[C@]5(CC)C=CCN6CC[C@]43[C@@H]65)C2)C1 [Vincristine, reference compound] | more active under metabolic activation | S9+ only |  | commonly active |
